Data reported in patent US3968101A, “8-Substituted cyclic nucleotides by free radical alkylation and acylation” (ICN Pharmaceuticals, Inc., priority 1974, dated 1976).

Experiments:
[1] = molecular target: cyclic nucleotide phosphodiesterase; test: Inhibition of cAMP hydrolysis by beef heart cyclic nucleotide phosphodiesterase; format: biochemical; conditions: beef heart enzyme; 50% inhibition of cleavage of cAMP, cAMP = 1.6 × 10^-7 M; read-out: Phosphodiesterase Inhibition, I50 Heart
Description: (§1) Homogenates of rabbit lung and beef heart are made in sucrose-Tris-magnesium buffer and are subjected to centrifugation at low speed to remove nuclei and cell debris. […] The precipitation which forms at 0-50% saturation is collected by centrifugation at 20,000 × g, dissolved in Tris-magnesium buffer, and dialyzed overnight against the same buffer.

[2] = molecular target: cyclic nucleotide phosphodiesterase; test: Inhibition of cAMP hydrolysis by rabbit lung cyclic nucleotide phosphodiesterase; format: biochemical; conditions: rabbit lung enzyme; 50% inhibition of cleavage of cAMP, cAMP = 1.6 × 10^-7 M; read-out: Phosphodiesterase Inhibition, I50 Lung
Description: as §1

[3] = system: cyclic nucleotide phosphodiesterase; test: Susceptibility to hydrolysis by rabbit kidney cyclic nucleotide phosphodiesterase; format: biochemical; conditions: rabbit kidney enzyme preparation; times the rate of cAMP
Description: All compounds were examined for their susceptibility to hydrolysis by cyclic nucleotide phosphodiesterase. Both cGMP and cIMP were hydrolyzed at approximately one-half the rate of cAMP by a rabbit kidney enzyme preparation generally prepared in the manner described below for rabbit lung enzyme. The new 8-substituted derivatives were not substrates (rate of hydrolysis<0.05 that of the rate of cAMP hydrolysis) within the limits of detection of our assay, with the sole exception of 8-(1-hydroxybutyl)-cGMP (12), which was hydrolyzed at a rate 0.18 times the rate of hydrolysis of cAMP. This finding is in agreement with the general conclusion that 8-substitution of a purine 3',5'-cyclic ribonucleotide greatly reduces the ability of the resulting derivative to serve as a substrate for cyclic nucleotide phosphodiesterase.

[4] = system: cGMP-dependent protein kinase; test: Activation of cGMP-dependent protein kinase isolated from lobster tail; format: biochemical; conditions: for Protein Kinase, Ka ' Lobster: ratio of Ka of cGMP to Ka of test compound, lobster tail cGMP-dependent kinase
Description: The new 8-substituted purine cyclic nucleotides were examined for their ability to stimulate both a cAMP-dependent protein kinase isolated from beef brain and a cGMP-dependent protein kinase isolated from lobster tail (see Table II). […]. Acad. Sci. USA 64, 1349, Kuo et al, 1971, J. Biol. Chem. 246,7159) to be mediated by its activation of a protein kinase.
The Ka of cAMP for the cAMP-dependent protein kinase is about the same (see footnote a, Table II) as the Ka of cGMP for the cGMP-dependent protein kinase. Comparison of the Ka ' values (the ratio of Ka of the dependent cyclic nucleotide to the Ka of the test compound) is, therefore, an accurate guide to the type of kinase stimulation seen at a given cyclic nucleotide concentration.
a Ka ' = The ratio of Ka of the dependent cyclic nucleotide (cAMP for bovine brain and cGMP for lobster tail) to the Ka of the test compound. […]

[5] = system: cAMP-dependent protein kinase; test: Activation of cAMP-dependent protein kinase isolated from beef brain; format: biochemical, bovine; conditions: ratio of Ka of cAMP to Ka of test compound; bovine brain cAMP-dependent kinase
Description: The new 8-substituted purine cyclic nucleotides were examined for their ability to stimulate both a cAMP-dependent protein kinase isolated from beef brain and a cGMP-dependent protein kinase isolated from lobster tail (see Table II).
a Ka ' = The ratio of Ka of the dependent cyclic nucleotide (cAMP for bovine brain and cGMP for lobster tail) to the Ka of the test compound.

Q: For `CCCC(O)c1nc2c(=O)[nH]c(N)nc2n1[C@@H]1O[C@@H]2COP(=O)(O)O[C@H]2[C@H]1O` (some centres unmarked) [Compound 12, 8-(1-Hydroxybutyl)guanosine 3',5'-Cyclic Phosphate], which IC50 [1] is on record?
A: The IC50 was 29 µM.

Q: What about the IC50 [2] of the same compound?
A: Its IC50 is 133 µM.

Q: What about the “rate of hydrolysis relative to the rate of cAMP hydrolysis” value [3] of the same compound?
A: Its value is 0.18.

Q: And the “Protein Kinase, Ka ' Lobster” value [4]?
A: Its value is 0.62.

Q: What about the “Protein Kinase, Ka ' Bovine” value [5] of the same compound?
A: The value was under 0.001.

Q: Which results are given for `O=c1[nH]cnc2c1ncn2[C@@H]1O[C@@H]2COP(=O)(O)O[C@H]2[C@H]1O` [Compound 19, Inosine 3',5'-cyclic phosphate, reference compound]?
A: IC50 [1]: 3.9 µM; IC50 [2]: 100 µM; rate of hydrolysis relative to the rate of cAMP hydrolysis [3]: approximately one-half; specificity between cGMP-dependent and cAMP-dependent protein kinase (in words) ([4]; lobster tail cGMP-dependent versus bovine brain cAMP-dependent kinase): greater activation of the cAMP-dependent kinase; Protein Kinase, Ka ' Lobster [4]: 0.085; Protein Kinase, Ka ' Bovine [5]: 0.59
